# Reference: patent publication US20190315711A1 (eXIthera Pharmaceuticals, Inc., priority 2016, published 2019)
# Key:
# [1] = biological target: T1, Factor Xa (Homo sapiens, UniProt P00742); assay: Dose response assay for protease inhibitors: Factor Xa; format: biochemical; conditions: ratio versus Factor XIa
# T1 construct: Factor Xa; 0.2 μM in 50% glycerol (9.2 μg/mL)
# Experimental: (§1) • Assay buffer: 20 mM Hepes, pH 7.4; 150 mM NaCl; 0.02% Tween 20 • Compounds: 10 mM stocks in DMSO • Substrate: 20 mM Glp-Pro-Arg-AMC, 25 mg/2.3 mL H2O (store at +4° C.) [Factor XIa, thrombin, and trypsin] • 20 mM Pro-Phe-Arg-AMC (Bachem I-1295), 25 mg/2.2 mL H2O or Boc-Leu-Gly-Arg-AMC (Bachem I-1105), 25 mg/2.07 mL H2O (store at +4° C.) [Factor Xa] • Enzyme: Factor XIa; 0.25 M in 50% glycerol (20 μg/mL) • Trypsin; 0.2 μM in 50% glycerol (4.8 μg/mL) • Thrombin; 0.2 μM in 50% glycerol (7.34 μg/mL) • Factor Xa; 0.2 μM in 50% glycerol (9.2 μg/mL)
# (§2) • 1. Dilute the substrate to 100 μM in assay buffer (30 μL/6 mL). The enzyme is diluted to 0.5 nM just prior to use (12 L/6 mL for Factor XIa; 15 μL/6 mL for all of the rest.) • 2. Pipette 50 μL of substrate into each well of the 96 well (12×8) microtiter plate. (Column 1 is used as the 100% activity control and receives no compound, and Column 12 is the blank and receives no enzyme.) Add an additional 46 μL to column 2. • 3. Pipette 4 μL of each compound into the appropriate well in column 2 of the plate (unknowns assayed in triplicate, standard assayed in duplicate). The final compound concentration will be 1/50th of the stock. • 4. Serially two-fold dilute the compound by mixing the sample in column 2, removing 50 μL to the next well (column 3), mix and remove to column 4, etc. until column 11. After mixing column 11, remove 50 μL and discard. • 5. Pipette 50 μL of buffer into column 12. Initiate the reaction by adding 50 μL of enzyme solution to each well of columns 1-11 as rapidly as possible. • 6. Read the plate in a spectrophotometer (SpectraMax) at 30° C., wherein each well is measured every 60 s for 30 min. For Factor Xa assays, each well is measured every 1 min for a total of 60 min. • 7. For Factor XIa assays, the compounds are assayed, in duplicate, at 3 different starting concentrations, 20, 2, and 0.2 μM; 1:10, 1:100, and 1:1000 dilution of 10 mM stock or at 2, 0.2, and 0.02 μM; 1:100, 1:1000, and 1:10,000 dilution of 10 mM stock. Data for each concentration are combined for graphing and data fitting. • 8. Data can be used both for estimation of IC50 and for estimation of Kon.
# [2] = biological target: T2, Thrombin (Homo sapiens, UniProt P00734); assay: Dose response assay for protease inhibitors: thrombin; format: biochemical; conditions: ratio versus Factor XIa
# T2 construct: Thrombin; 0.2 μM in 50% glycerol (7.34 μg/mL)
# Experimental: as §1, §2
# [3] = biological target: T3, Trypsin (Bos taurus, UniProt P00760); assay: Dose response assay for protease inhibitors: trypsin; format: biochemical; conditions: ratio versus Factor XIa
# T3 construct: gene PRSS1
# T3 sequence (P00760 24-246): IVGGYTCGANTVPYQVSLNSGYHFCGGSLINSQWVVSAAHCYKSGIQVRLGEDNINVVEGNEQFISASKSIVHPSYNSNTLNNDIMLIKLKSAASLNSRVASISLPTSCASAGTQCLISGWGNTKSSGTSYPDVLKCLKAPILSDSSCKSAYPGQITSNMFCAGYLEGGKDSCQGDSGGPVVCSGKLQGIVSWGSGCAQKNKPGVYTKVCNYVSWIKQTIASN
# Experimental: as §1, §2
# [4] = biological target: human Factor XIa (Homo sapiens, UniProt P03951); assay: Factor XIa enzyme inhibition assay (dose response, fluorogenic AMC substrate); format: biochemical; design: Enzyme: Factor XIa; conditions: purified enzyme; substrate 50 μM, enzyme 0.25 nM; read-out: hFXIa IC50
# Chain of human Factor XIa (P03951 388-625 limits assumed): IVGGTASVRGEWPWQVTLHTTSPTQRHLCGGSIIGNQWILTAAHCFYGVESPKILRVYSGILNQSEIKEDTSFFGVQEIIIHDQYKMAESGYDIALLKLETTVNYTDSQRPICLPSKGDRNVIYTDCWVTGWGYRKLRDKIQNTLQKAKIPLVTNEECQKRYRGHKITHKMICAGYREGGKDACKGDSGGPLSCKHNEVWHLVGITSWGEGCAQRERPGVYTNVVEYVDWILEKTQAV
# Chain of human Factor XIa (P03951 19-387 partner limits assumed): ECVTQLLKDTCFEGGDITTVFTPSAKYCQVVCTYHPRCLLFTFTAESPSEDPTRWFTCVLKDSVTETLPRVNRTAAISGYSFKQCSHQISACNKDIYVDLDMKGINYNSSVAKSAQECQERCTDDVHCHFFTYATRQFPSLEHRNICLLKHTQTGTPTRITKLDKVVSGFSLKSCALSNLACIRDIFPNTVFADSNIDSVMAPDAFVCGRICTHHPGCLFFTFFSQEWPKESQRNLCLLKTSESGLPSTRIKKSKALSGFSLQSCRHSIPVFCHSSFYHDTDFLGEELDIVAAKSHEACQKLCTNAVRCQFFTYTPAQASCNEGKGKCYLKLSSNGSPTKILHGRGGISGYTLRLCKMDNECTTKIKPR
# Experimental: as §1, §2
# Potential inhibitors of Factor XIa were evaluated using the following assay.
# PyroGlu-Pro-Arg-7-methylaminocourin (AMC), available from CPC Scientific, Inc., is based on the substrate pyro-Glu-Pro-Arg-pNA (S-2366), available from Diapharma Group, Inc. (Columbus, Ohio), wherein the p-nitroanaline group is replaced with 7-methylaminocoumarin (AMC).
# The final concentration of the substrate in the assay was 50 μM, and the final concentration of the enzyme was 0.25 nM. Inhibitors were tested by serial dilution over an appropriate range to yield a dose response curve for determination of the inhibitors' IC50 value. The assay mixture was read every minute for 30 minutes in order to generate progress curves. The plates were read in a Spectramax m5 Multimode Plate Reader (Molecular Devices LLC, Sunnyvale, Calif.). Dose response curves were fit to Equation 1 below in which A is the maximum inhibition, B is the minimum inhibition, C is the IC50, and D is the Hill coefficient.
# Y=[(A−B)/(1+(X/C)^D)]+B (Equation 1)
# [5] = Caco-2 cell permeability assay (A-B and B-A); format: in vitro ADME; conditions: human; for Papp A→B at 60 min, 10 μM: A-B direction; for Papp B→A at 40 min, 10 μM: B-A direction
# Experimental: The following procedure was used to determine the ability of a test compound to cross Caco-2 cells (human intestinal epithelial cells derived from a colorectal adenocarcinoma). The cells were seeded at 1×10^5 cells/cm^2 in 96-well Multiscreen™ plates (Millipore). Permeability assays were performed with the cells at days 21-25 post-seeding. Cells are typically used for 15 consecutive passages in culture.
# This assay can be performed in either the apical to basolateral (A−B) or basolateral to apical (B−A) direction. The test compound was prepared at 10 μM in HBSS-MES (pH 6.5) or HBSS-HEPES (pH 7.4) with a final DMSO concentration of 1%. The working solution was then centrifuged and the supernatant added to the donor side. The assay plate was incubated at 37° C. with gentle shaking for 60 min or 40 min for the A−B or B−A assay, respectively. Samples were aliquoted from the donor side at time zero and the end point, and from the receiver side at the end point.
# Reference compounds, propranolol (highly permeable), labetalol (moderately permeable), ranitidine (poorly permeable), and colchicine (P-glycoprotein substrate) were included in each assay.
# Samples are analyzed by HPLC-MS/MS using selected reaction monitoring. The HPLC system consists of a binary LC pump with autosampler, a C-18 column, and a gradient.
# The apparent permeability coefficient (Papp) of the test compound (Equation 2) and its recovery (Equation 3) are calculated as follows: […]
# wherein A is the surface area of the cell monolayer (0.11 cm^2), C is concentration of the test compound expressed as peak area, D denotes donor, and R is receiver. “0”, “mid,” and “end” denote time at zero, mid-point, and end of the incubation, respectively. At is the incubation time. V is the volume of the donor or receiver.
# This is most likely due to non-specific binding or degradation.
# T1 sequence (P00742 235-488 limits assumed): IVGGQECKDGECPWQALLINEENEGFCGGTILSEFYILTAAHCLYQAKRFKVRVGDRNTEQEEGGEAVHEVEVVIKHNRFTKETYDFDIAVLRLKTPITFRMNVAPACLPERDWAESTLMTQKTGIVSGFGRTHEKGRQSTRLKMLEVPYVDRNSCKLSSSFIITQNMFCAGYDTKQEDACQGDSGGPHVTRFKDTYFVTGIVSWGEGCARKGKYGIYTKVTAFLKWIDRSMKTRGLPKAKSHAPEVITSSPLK
# T1 sequence (P00742 41-179 partner limits assumed): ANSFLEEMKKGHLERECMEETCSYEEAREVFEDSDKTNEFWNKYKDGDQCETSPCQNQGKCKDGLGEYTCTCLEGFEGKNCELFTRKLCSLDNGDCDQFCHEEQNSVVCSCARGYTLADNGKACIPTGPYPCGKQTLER
FXa/FXIa (selectivity ratio) [1],Ratio: Thrombin/FXIa [2],Ratio: Trypsin/FXIa [3],IC50 [4] [nM],"Papp A→B at 60 min, 10 μM [5] [×10⁻⁶ cm/s]","Papp B→A at 40 min, 10 μM [5] [×10⁻⁶ cm/s]",SMILES
I (“I” indicates >500),H (“H” indicates 101-1000),G (“G” indicates 1-100),< 10,–,–,CC[C@@H](NC(=O)N1C(=O)[C@H](Cc2ccnc(N)c2)[C@H]1C(=O)N(CC)c1ccccc1)C1CCCCC1 [Compound 31]
H (“H” indicates 101-1000),H (“H” indicates 101-1000),G (“G” indicates 1-100),< 10,–,–,CC[C@@H](NC(=O)N1C(=O)[C@H](Cc2ccnc(N)c2)[C@H]1C(=O)N(C)c1ccccc1)c1ccccc1 [Compound 40]
–,–,–,< 10,≤ 10,≤ 10,CC[C@@H](NC(=O)N1C(=O)[C@H](Cc2ccnc(N)c2)[C@H]1C(=O)N(C)c1cc(Cl)cc(Cl)c1)C1CCCCC1 [Compound 51]
I (“I” indicates >500),H (“H” indicates 101-1000),G (“G” indicates 1-100),< 10,–,–,CCN(C(=O)[C@@H]1[C@@H](Cc2ccnc(N)c2)C(=O)N1C(=O)N[C@@H](C1CCCCC1)C1CC1)c1ccccc1 [Compound 55]
H (“H” indicates 101-1000),H (“H” indicates 101-1000),H (“H” indicates 101-1000),10 to 100,–,–,CN(C(=O)[C@@H]1[C@@H](Cc2ccncc2)C(=O)N1C(=O)N[C@@H](C1CCCCC1)C1CC1)c1ccncc1 [Compound 64]

# The remaining lines, values behind:
SMILES,FXa/FXIa (selectivity ratio) [1],Ratio: Thrombin/FXIa [2],Ratio: Trypsin/FXIa [3],IC50 [4] [nM],"Papp A→B at 60 min, 10 μM [5] [×10⁻⁶ cm/s]","Papp B→A at 40 min, 10 μM [5] [×10⁻⁶ cm/s]"
CC[C@@H](NC(=O)N1C(=O)[C@H](Cc2ccnc(N)c2)[C@H]1C(=O)N(C)c1cccc(F)c1)C1CCCCC1 [Compound 29],I (“I” indicates >500),H (“H” indicates 101-1000),G (“G” indicates 1-100),< 10,–,–
CC(C)[C@@H](NC(=O)N1C(=O)[C@H](Cc2ccnc(N)c2)[C@H]1C(=O)N(C)c1ccccc1)C1CCCCC1 [Compound 35],I (“I” indicates >500),H (“H” indicates 101-1000),G (“G” indicates 1-100),< 10,–,–
CCN(C(=O)[C@@H]1[C@@H](Cc2ccnc(N)c2)C(=O)N1C(=O)N[C@@H](C1CCCCC1)C(F)(F)F)c1ncccn1 [Compound 38],–,–,–,< 10,≤ 10,≤ 10
CCN(C(=O)[C@@H]1[C@@H](Cc2ccnc(N)c2)C(=O)N1C(=O)N[C@@H](C1CCCCC1)C1CC1)c1ncccn1 [Compound 54],–,–,–,< 10,11 to 30,≤ 10
